# Data reported in patent US20210308138A1, “TISSUE TRANSGLUTAMINASE MODULATORS FOR MEDICINAL USE” (Aarhus Universitet, priority 2018, published 2021).
# Columns and labels:
# Male Wistar rats = assay: Mean arterial pressure (MAP) in vivo measurement after intrajugular infusion
# Description: For ‘in vivo’ experiments Wistar rats of different age were fasted 8 h before anesthesia with 35 mg/kg of S-ketamine and 50 mg/kg of pentobarbital sodium administered intraperitoneally.
# Male Wistar rats with 12-14 and 30-35 weeks of age were anesthetized with s-ketamine (35 mg/kg) and pentobarbital (50 mg/kg) and placed on a heated blanket to maintain body temperature at 37° C. ECG needles were installed for electrocardiographic measurements and a solid state catheter (Millar Inc, Houston, USA) was introduced into the carotid artery to measure MAP. MAP and electrocardiographic data was continuously recorded on a computerized data acquisition system (PowerLab, ADInstruments). Adequate depth of anesthesia was checked periodically by the absence of the toe pinch withdrawal effect and ⅓ of the initial dose of anesthetics was administered intraperitoneally when needed (usually each 1½ h). Changes in MAP and electrocardiographic signal in response to intrajugular infusion during 3 minutes of different doses of LDN-27219 and the corresponding vehicle (PEG-400) were studied.
# The Area Under the Curve (AUC) was calculated using Graphpad Prism 5.1 (GraphPad Software, San Diego, Calif., USA) for each response to the change in MAP that was collected during the experiments in example 3. The AUC gives information about the maximal response, and about the duration of the effect.
# Rats of different age in these experiments were anesthetized, prepared and catheterized as described in Example 3.
# purified human TG2 = biological target: T1, purified human TG2 (Homo sapiens, UniProt P21980); assay: Conformational shift assay by native polyacrylamide gel electrophoresis (native-PAGE); type: biochemical; details: TG2 2.5 uM; 1 mM LDN-27219, 1 mM GTPNa2, or 0.2 mM Z-DON with CaCl2
# T1 construct: purchased Zedira (Darmstadt, Germany); host or cells: insect cells
# T1 sequence (P21980 1-687): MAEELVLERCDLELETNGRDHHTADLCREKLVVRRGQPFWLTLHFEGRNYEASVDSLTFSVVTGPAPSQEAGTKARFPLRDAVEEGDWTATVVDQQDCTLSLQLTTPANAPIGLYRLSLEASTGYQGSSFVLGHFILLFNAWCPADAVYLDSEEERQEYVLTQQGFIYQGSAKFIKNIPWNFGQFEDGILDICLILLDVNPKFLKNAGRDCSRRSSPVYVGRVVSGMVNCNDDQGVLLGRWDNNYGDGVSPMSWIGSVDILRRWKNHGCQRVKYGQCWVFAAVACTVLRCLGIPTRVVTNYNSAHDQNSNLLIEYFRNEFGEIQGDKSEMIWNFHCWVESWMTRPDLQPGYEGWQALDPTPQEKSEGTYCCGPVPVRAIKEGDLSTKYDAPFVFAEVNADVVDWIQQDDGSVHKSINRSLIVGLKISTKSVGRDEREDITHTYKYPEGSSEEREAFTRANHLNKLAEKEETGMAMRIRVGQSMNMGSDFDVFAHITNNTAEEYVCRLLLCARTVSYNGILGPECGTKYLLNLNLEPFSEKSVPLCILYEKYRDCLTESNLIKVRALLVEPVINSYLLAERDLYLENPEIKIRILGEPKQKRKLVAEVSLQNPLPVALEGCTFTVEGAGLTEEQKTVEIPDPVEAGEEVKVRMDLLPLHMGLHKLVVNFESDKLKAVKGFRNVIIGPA
# Description: For the conformational shift assay using native polyacrylamide gel electrophoresis (native-PAGE) purified and functional human TG2 protein produced in insect cells was obtained from Zedira (Darmstadt, Germany).
# Native gel electrophoresis experiments were performed using a method similar to those previously described (Pinkas D M, et al., PLoS Biol, 2007, 5(12), 2788-2796.) (Iversen R, et al., Proc Natl. Acad. Sci., 2014, 111(43), 17146-17151). Briefly, TG2 (2.5 uM) was incubated for 30 min at room temperature in preincubation buffer (75 mM imidazole, 0.5 mM EDTA, 5 mM DTT [pH 7.2], 10% DMSO) with or without 1 mM GTPNa2 or 1 mM LDN-27219 before adding Native Sample Buffer for Protein Gels (Bio-Rad) or in preincubation buffer with 0.2 mM Z-DON 30 min prior addition of 5 mM of CaCl2 for 20 min. Native buffer was added (dilution 1:2), and 1.5 ug of protein was loaded onto a 4-20% Criterion™ TGX Stain-Free™ gel (Bio-Rad) using Tris-glycine as the running buffer. For 75 min, 125 V was applied at 4° C. The bands were visualized using stain-free technology by exposing the gels to UV light and capturing the image using a PXi 4 Touch image analysis system (Syngene). Band intensity analysis was carried out using GeneTools 4 software (Syngene).
# [1] = test system: diabetic male BKS(D)-Leprdb/JOrlRj homozygous mice; assay: Long-term in vivo treatment of diabetic mice, endothelial function as acetylcholine-induced relaxation of small mesenteric arteries; details: LDN-27219 8 mg/kg/12 h IP for 3 weeks vs candesartan cilexetil 3 mg/kg/24 h in drinking water
# Description: For long-term ‘in vivo’ experiments, stocks of LDN-27219 dissolved in PEG-400 were diluted in saline solution containing SBE-b-CD to improve solubility (9 mg/mL NaCl; 15% (w/v) SBE-b-CD) […], resulting in a final concentration of 2.00 mg/mL of LDN-27219 in 10% PEG-400/90%(15% (w/v) SBE-b-CD in saline solution). For the treatment on the drinking water 1 mg/ml Candesartan cilexetil was dissolved in a vehicle of polyethylene glycol 400 (10% v/v), ethanol (5% v/v), cremophor EL (2% v/v), and tap water (83% v/v) and the pH was adjusted to 9.0 with 0.5 mol/L Na2CO3 prior to dilution to the final concentration in tap water, as previously described (Seltzer A., et al., Brain Res., 2004, 1028(1), 9-18). Final concentrations needed to achieve the desired doses of candesartan cilexetil per day were determined by measuring water consumption each 3-4 days.
# For long-term ‘in vivo’ studies, diabetic homozygous mice were randomly allocated into three groups: 1) treatment with Intraperitoneal (IP) injections of LDN-27219 (8 mg/kg/12 h) and vehicle drinking water [LDN-27219 treatment group], or 2) treatment with IP injections of vehicle (each 12 h) and candesartan cilexetil (3 mg/kg/24 h) in the drinking water [candesartan treatment group], or 3) treatment with IP injections of vehicle (each 12 h) and vehicle drinking water [vehicle treatment group]. […]
structure (smiles),measurement,setting,value
NNC(=O)CSc1nc2scc(-c3ccccc3)c2c(=O)n1-c1ccccc1 [LDN-27219],mean blood pressure (MAP),"Male Wistar rats; LDN-27219 0.1, 1.0 and 2.0 mg/kg, intrajugular infusion during 3 minutes, carotid artery",lowers the mean blood pressure
same,age dependence of antihypertensive effect (AUC of MAP),Male Wistar rats; rats >30 weeks vs 12-14 weeks old,greater effect of LDN-27219 in older animals
same,relative abundance of closed / open conformation of TG2,purified human TG2,increase the relative abundance of the closed conformation
same,prevention of diabetes-related endothelial dysfunction,[1],able to prevent diabetes-related endothelial dysfunction better than the long-term treatment with angiotensin II receptor antagonist candesartan cilexetil
